Read-outs that look alike come from different tables or passages of the source. A value given as a limit tells only on which side of the number the result lay.

Series [1] has as its target T1, Recombinant Human Poly(ADP-Ribose) Polymerase (PARP) (Homo sapiens, UniProt P09874).
T1 construct: purchased Trevigen, Gaithersburg, Md; host or cells: E. coli
Description: PARP1 inhibition assay ([3H]-NAD+, biotinylated histone H1, FlashPlate/SPA). The class given is biochemical. As to conditions: from inhibition curves at various substrate concentrations.
Description: Nicotinamide[2,5′,8-3H]adenine dinucleotide and strepavidin SPA beads were purchased from Amersham Biosiences (UK) Recombinant Human Poly(ADP-Ribose) Polymerase (PARP) purified from E. coli and 6-Biotin-17-NAD^+, were purchase from Trevigen, Gaithersburg, Md. NAD^+, Histone, aminobenzamide, 3-amino benzamide and Calf Thymus DNA (dcDNA) were purchased from Sigma, St. Louis, Mo. […] Biotinylated histone H1 was prepared by treating the protein with Sulfo-NHS-LC-Biotin from Pierce Rockford, Ill. […] Streptavidin coated (FlashPlate Plus) microplates were purchased from Perkin Elmer, Boston, Mass.
PARP1 assay was conducted in PARP assay buffer containing 50 mM Tris pH 8.0, 1 mM DTT, 4 mM MgCl2. […] 170 μl of the stopped reaction mixtures were transferred to streptavidin Flash Plates, incubated for 1 hr, and counted using a TopCount microplate scintillation counter.

For another series, the system named is HCT-116 tumors. Briefly: HCT-116 tumors in nude mice, combination with radiotherapy. The class given is in vivo. As to conditions: combination with radiotherapy (2 Gy/day, 10 doses) vs radiotherapy or compound alone; 6.25, 12.5 or 25 mg/kg/day i.p. OMPs 14 days; FIG. 1. Here is the method: This study was done in nude mice bearing HCT-116 tumors in the leg. Three days (−3) prior to the beginning of radiotherapy, mice were implanted i.p with OMPs delivering A-620223 at 0, 6.25, 12.5, or 25 mg/kg/day for 14 days. Starting day 0 mice received radiation treatment (2 Gy/day) for 10 doses alone or in combination with the 3 different doses of 2-(N-propylpiperidin-4-yl)benzimidazole-4-carboxamide.

For the next series, the system named is B16F10 murine melanoma. Description: B16F10 murine melanoma, combination with TMZ. It counts as in vivo, C57BL/6 mice. Conditions: A-861695 25, 12.5 or 3.1 mg/kg/day p.o. b.i.d. + TMZ 62.5 mg/kg/day p.o. q.d. X5; FIG. 2. Here is the method: This study was done on mice with B 16F10 murine melanoma. Mice were divided into six treatment groups with 8-10 mice per group. See figure two for treatment groups. B16F10 cells were injected s.c. into C57BL/6 mice on day 0. Dosing was initiated on day one. A-861695 was administered p.o., b.i.d. on days 1-14. On days 3-7 temozolomide (TMZ) was administered p.o., q.d. (for the groups receiving both TMZ and A-861695, TMZ was given two hours after the A-861695 was administered).

The subject of series [2] is MX-1 breast carcinoma xenograft. Description: MX-1 breast carcinoma xenograft, combination with carboplatin. The class given is in vivo, scid mice.
Description: This cell line was derived from a person with a poorly differentiated mammary carcinoma.
Data presented in FIG. 4 are mean ±S.E.M. of 8-10 mice per treatment group.
The test system is the same in series [3]. Description: MX-1 breast carcinoma xenograft, combination with cisplatin. Conditions: FIG. 5. It counts as in vivo, nude mice. Here is the method:
In this study the efficacy of A-861695 in combination with cisplatin was evaluated in the MX-1 breast carcinoma xenograft model in nude mice. Tumors were size-matched to 100 mm^3 on day 16 and PARP inhibitor therapy (p.o., b.i.d. x8) was initiated the same day. A single dose of cisplatin at 6.0 mg/kg/day was administered i.p. day 18. Data, shown in FIG. 5, are mean ±S.E.M. of 9 mice per treatment group.

Series [4] has as its system HSB T-cell ALL; JM1 pre-B ALL; P115 primary AML cells. Description: TMZ and ABT-888 combinations in leukemia cells (FIGS. 9-11). Conditions: differing amounts of TMZ and ABT-888.
Series [5] has as its system DoHH-2 flank tumor xenograft. Conditions: for efficacy at reducing the Mean Tumor Volume, alone: single agent.
Description: Animals were size matched on day 15 to an approximate tumor volume of 503 mm^3.
Group mouse weights were recorded three times a week to monitor for weight loss due to toxicity or excessive tumor burden.
For series [6], the system named is MDA-231-LN-luc cells in the brain striatum. Conditions: for survival to 300% tumor change endpoint: Kaplan-Meier, Logrank, FIG. 23.
A further series deals with MX-1 flank xenograft. As to conditions: TMZ at 50 and 12.5 mg/kg/day.
The subject of series [7] is PC3M-Luc human prostate carcinoma. Description: Orthotopic PC3M-Luc human prostate carcinoma model (BLI). As to conditions: vs vehicles, p<0.01. It counts as in vivo, male SCID-C.B17 mice. Here is the method: Bioluminescent PC-3M-luciferase-C6 osteolytic human prostate cancer cells, constitutively expressing luciferase (Caliper Life Sciences, Hopkinton, Mass.) were orthotopically injected into the prostates of 10-week-old male SCID-C.B17 mice (C.B-17/IcrCrl-scid-BR, Charles River Labs). Mice were housed in a facility with constant humidity, temperature and a 12-h light-dark cycle. Mice were anesthetized with intramuscular injections of ketamine (40 mg/kg) and rompum (5 mg/kg) before surgery. The surgical region was shaved and sterilized with iodine and alcohol swabs. A lower midline incision was made to access the prostate. The left lobe of the dorsal prostate was injected with 1×10^6 PC3M-Luc cells (975 photon/second/cell) in 30 μl (1:1 matrigel, Collaborative Biomedical Products, Bedford, Mass.). The peritoneal cavity was closed with 4-0 suture and skin incision was closed with clip.
In vivo bioluminescent image (BLI) was performed with an IVIS® Imaging System (Caliper Life Sciences, Hopkinton, Mass.). […] Images and measurements of bioluminescent signals were acquired and analyzed using Living Image® software (Caliper Life Sciences, Hopkinton, Mass.). Uniform region of interests (ROIs) were used across all groups and time points to achieve quantification of bioluminescent signal. […] The mice were then monitored with this system at weekly intervals. […]

Series [8] in a line: Valproic acid and radiotherapy (FIG. 6).

T1 sequence (P09874 whole entry): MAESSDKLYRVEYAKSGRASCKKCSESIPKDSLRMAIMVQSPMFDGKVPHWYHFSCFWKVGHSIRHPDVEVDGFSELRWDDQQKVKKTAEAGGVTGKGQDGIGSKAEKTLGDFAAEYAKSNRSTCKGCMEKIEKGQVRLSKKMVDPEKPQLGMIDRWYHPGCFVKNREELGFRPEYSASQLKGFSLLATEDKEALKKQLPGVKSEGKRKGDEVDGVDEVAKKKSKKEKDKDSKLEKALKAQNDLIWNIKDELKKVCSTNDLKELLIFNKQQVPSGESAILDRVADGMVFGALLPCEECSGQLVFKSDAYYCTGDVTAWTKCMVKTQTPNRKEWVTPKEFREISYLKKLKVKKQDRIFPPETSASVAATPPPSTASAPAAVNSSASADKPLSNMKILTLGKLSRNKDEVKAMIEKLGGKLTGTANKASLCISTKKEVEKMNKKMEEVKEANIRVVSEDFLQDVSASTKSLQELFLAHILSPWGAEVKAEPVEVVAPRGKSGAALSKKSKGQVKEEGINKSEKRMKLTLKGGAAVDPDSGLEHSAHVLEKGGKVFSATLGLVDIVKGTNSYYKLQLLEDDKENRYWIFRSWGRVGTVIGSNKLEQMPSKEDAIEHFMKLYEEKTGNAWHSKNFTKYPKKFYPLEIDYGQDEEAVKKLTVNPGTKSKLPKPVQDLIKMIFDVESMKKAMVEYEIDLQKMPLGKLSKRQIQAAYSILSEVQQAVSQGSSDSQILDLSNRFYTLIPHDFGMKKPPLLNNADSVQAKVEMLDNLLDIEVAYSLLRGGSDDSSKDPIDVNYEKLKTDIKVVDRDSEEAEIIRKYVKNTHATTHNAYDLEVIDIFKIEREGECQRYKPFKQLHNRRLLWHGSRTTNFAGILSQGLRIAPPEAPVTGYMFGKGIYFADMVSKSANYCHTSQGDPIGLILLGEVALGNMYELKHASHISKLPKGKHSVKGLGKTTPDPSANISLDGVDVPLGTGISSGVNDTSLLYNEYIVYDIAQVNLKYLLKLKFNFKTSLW
Description for MX-1 flank xenograft: All mice were ear tagged. […] At various intervals following tumor cell inoculation, the individual tumor dimensions were serially measured using calibrated microcalipers and the tumor volumes calculated according to the formula V=L×W^2/2 (V:volume, L:length, W:width). Mice were humanely euthanized when the tumor volumes reached a predetermined size.

A word on the Ki: it is the equilibrium dissociation constant of an inhibitor or competing ligand from its target. Take `CCCN1CCC(c2nc3cccc(C(N)=O)c3[nH]2)CC1` [2-(N-propylpiperidin-4-yl)benzimidazole-4-carboxamide]: the inhibitory constant (Ki) in series [1] worked out at 8.6 nM. In the series on HCT-116 tumors, the “reduction of tumor size” value is on record as “significant improvement in the reduction of tumor size”.

On to `CC(C)N1CCC[C@H]1c1nc2c(C(N)=O)cccc2[nH]1` [2-[(2S)-1-isopropylpyrrolidin-2-yl]-1H-benzimidazole-4-carboxamide], for which the Ki in series [1] is 19.3 nM.

`CCCN1CCC[C@H]1c1nc2c(C(N)=O)cccc2[nH]1` [2-[(2S)-1-propylpyrrolidin-2-yl]-1H-benzimidazole-4-carboxamide]: the Ki in series [1] was 129 nM.

Regarding `CN(C)S(=O)(=O)N1CC(C)(c2nc3c(C(N)=O)cccc3[nH]2)C1` [2-{1-[(dimethylamino)sulfonyl]-3-methylazetidin-3-yl}-1H-benzimidazole-4-carboxamide], in [1], the Ki is 7 nM.

Consider `CN(C)S(=O)(=O)N1CCC(C)(c2nc3c(C(N)=O)cccc3[nH]2)CC1` [2-{1-[(dimethylamino)sulfonyl]-4-methylpiperidin-4-yl}-1H-benzimidazole-4-carboxamide], for which, in [1], the inhibition constant Ki was 8.8 nM.

For `CN(C)S(=O)(=O)N1CC(c2nc3c(C(N)=O)cccc3[nH]2)C1` [2-{1-[(dimethylamino)sulfonyl]azetidin-3-yl}-1H-benzimidazole-4-carboxamide], the Ki in series [1] was found to be 16 nM.

Consider `CN(C)S(=O)(=O)N1CCC(c2nc3c(C(N)=O)cccc3[nH]2)CC1` [2-{1-[(dimethylamino)sulfonyl]piperidin-4-yl}-1H-benzimidazole-4-carboxamide], for which the inhibition constant Ki in series [1] came out at 31.1 nM.

For `C[C@]1(c2nc3c(C(N)=O)cccc3[nH]2)CCCN1` [ABT-888, 2-[(2R)-2-methylpyrrolidin-2-yl]-1H-benzimidazole-4-carboxamide], the “potentiation of TMZ efficacy” value with B16F10 murine melanoma is given as “significantly potentates the TMZ efficacy in a dose dependent manner”. The “potentiation of carboplatin (tumor volumes)” value in [2] (A-861695 25 mg/kg/day s.c. OMPs 14 days + carboplatin 10 and 15 mg/kg/day) is “pronounced potentiation of carboplatin”. Moreover, the “potentiation of cisplatin activity” value in [3] is “pronounced potentiation of cisplatin activity”. For the same compound, the “effect on toxicity of TMZ” value in [4] is listed as “enhancement of toxicity of TMZ”. The “blood brain barrier crossing” value (rat, in vivo) is listed as “crosses the blood brain barrier”. For the same compound, where the note is “tumor-bearing rats”, the “effect of co-administration of TMZ on plasma PK profile” value is recorded as “did not alter the plasma PK profile”. Moreover, the “Observations (toxicity assessment)” value in series [5] (Scid female mice, same dosing) is “None”. In addition, the “efficacy at reducing the Mean Tumor Volume, alone” value in [5] is “no efficacy”. In series [6], the “survival to 300% tumor change endpoint” value is reported as “profoundly improved survival compared to TMZ treatment alone”. The “effect on toxicity of TMZ (% mean body weight loss)” value with MX-1 flank xenograft is listed as “did not exacerbate the toxicity of TMZ”.

Turning to `Cn1nnc2c(C(N)=O)ncn2c1=O` [TMZ, temozolomide], the “efficacy after first treatment schedule (day 30)” value in series [7] is given as “significantly better than their vehicles”. In addition, the “Observations (toxicity assessment)” value in series [5] (female, Scid, mouse, in vivo) is reported as “Slight”. Besides, the “efficacy at reducing the Mean Tumor Volume, alone” value in series [5] was “no efficacy”. In [6], the “survival to 300% tumor change endpoint” value is listed as “significantly increased survival”. The “Weight loss (Observations)” value in series [6] (after last dose of 2nd cycle) is over 10% after last. Moreover, the Mortality in series [6] (dead/total mice) is reported as 0/11.

With `N.N.O=C([O-])C1(C(=O)[O-])CCC1.[Pt+2]` [carboplatin], the “tumor inhibition as a single agent” value in series [2] (carboplatin 5, 10, 15 mg/kg/day i.p. day 20, 24, 27, FIG. 4) is listed as “dose-dependent tumor inhibition”. Besides, the “tumor volume course, monotherapy” value in series [2] (carboplatin monotherapy 10 mg/kg/day) is reported as “only delayed tumor growth”.

In the case of `CCCC(CCC)C(=O)O` [valproic acid], the effect on radiotherapy entry in series [8] is recorded as “can enhance the effects of radiotherapy”.

These data come from patent publication US20080293795A1, “COMBINATION THERAPY WITH PARP INHIBITORS” (ABBOTT LABORATORIES, priority 2006, published 2008).
